Measurements taken from patent US6355619B1, “Peptide tumor cell growth inhibitors” (Board of Regents, The University of Texas System, priority 1996, dated 2002).
Blank lines part the entries; values can stand above or below the substance they belong to. Where no end group is shown, it is not given here. [ ]: non-standard residue; d: D form.

Assays:
[1] = molecular target: IL-8 receptors on human neutrophils (human); assay: inhibition of 125I-IL-8 binding to human neutrophils, method of Example I; D-amino acid heptamer series
[2] = molecular target: IL-8 receptors on human neutrophils (human); assay: inhibition of 125I-IL-8 (10^-12 M) binding to human neutrophils, peptide 100 µM
[3] = system: IL-8 receptors on neutrophils; assay: Inhibition of 125I-labeled IL-8 binding to human neutrophils; conditions: for % Binding Inhibition (IL-8 binding to neutrophils): synthetic peptides, standard assay (Table 6)
Protocol: Therefore, in pursuing this aim, the present inventors assayed various other peptide compositions for IL-8 inhibitory activity by screening a library of 400 groups of hexapeptides. In these screening assays, ^125I-labeled interleukin-8 (10^−12 M) was mixed with 100 μM peptide, then added to neutrophils and incubated at 4° C. for 90 min. The bound radioactivity was separated from unbound by centrifugation through a dense cushion of a mixture of paraffin and silicon oils and the ^125I bound to neutrophils was counted in a gamma radiation spectrometer, allowing the results to be expressed as the percent of IL-8 binding which was inhibited.
The use of human subjects for acquisition of neutrophils was approved by the Institutional Review Board for human experimentation. For the preparation of neutrophils, human blood was anticoagulated with heparin for enzyme release studies and with 0.33% sodium citrate for other studies. For chemotactic and enzyme release studies neutrophils were separated by dextran sedimentation and erythrocyte lysis by the method of Boyum (Kohler and Milstein, 1975). For binding studies and cytotoxic studies, the neutrophils were further purified in gradients of Percoll (Pharmacia Fine Chemicals, Piscataway, N.J.) to a purity of 90-93% (Kohler and Milstein, 1975).
Recombinant human IL-8 (72 amino acids; Pepro Tech Inc., Rocky Hill, N.J.) was radioactively labeled with ^125I by the chloramine T method of Hunter and Greenwood (Hunter and Greenwood, 1962). Binding studies were performed according to Besemer et al. (1989), as follows: Neutrophils in phosphate buffered saline pH 7.4 (PBS) containing 0.1% bovine serum albumin (BSA) were incubated with labeled ligand in the presence or absence of the peptide being tested for 90 min at 4° C. to reach equilibrium and then centrifuged at 12,000×g for 3 min in Beckman B microfuge (Beckman Instruments, Fullerton, Calif.), through a cushion consisting of a mixture of paraffin oil Fisher Scientific, Fair Lawn, N.J.) and silicon oil (Serva Co., N.Y., N.Y.). The pellet and supernatant were then counted in a gamma radiation spectrometer. The non-specific binding was estimated to measure the binding in the presence of 100-fold excess of non-labeled ligand. The binding constants were calculated using the computer programs Lundon I and Lundon II.
In these studies, a screening for inhibition was carried out at 100 μM concentration of the peptide being tested, with a 10^−12 M concentration of IL-8. In the first series of studies, twenty peptides were synthesized with the carboxyl-terminal residue of RRWWCX (SEQ ID NO:23) being changed to each of the standard protein amino acids in turn.

[4] = 100 μM peptide, 10^−12 M IL-8, hexamer RRWWCX series, first screen
[5] = first set of heptamer studies, D-amino acid RRWWCRX series, methodology of Example I

% INHIB. [1]: 108%
Substance: rrwwcrg (peptide)

% INHIB. [1]: 89.2%
Substance: rrwwcrv (peptide)

% INHIB. [2]: 17.1%
Substance: RRWWCE (peptide)

Substance: Ac-KELRCQ-NH2 [IL-8 homologue peptide, reference compound]
ability to inhibit IL-8 binding to neutrophils [3]: None of these peptides had the ability to inhibit IL-8 binding | % Binding Inhibition (IL-8 binding to neutrophils) [3]: −0.4 ± 11.8%

Substance: RRWWCF
% INHIB. (IL-8 binding to neutrophils) [3, 4]: 80.2%

% INHIB. [2]: 79.3%
Substance: RRWWCS (peptide)

Substance: RRWWCA
% INHIB. (IL-8 binding to neutrophils) [3, 4]: 51.9%

Substance: Arg Arg Trp Trp Cys Arg Cys (Ac-[dR][dR][dW][dW][dC][dR][dC]-NH2; not fully specified; printed as Arg Arg Trp Trp Cys Arg Cys; cysteine pairing not given here) [rrwwcrc]
potency as inhibitor relative to Ac-rrwwcr-NH2 [3]: almost four times as potent | inhibition of IL-8 binding to neutrophils ([3]; 10 μM peptide (FIG. 9)): 80% | % INHIB. (IL-8 binding to neutrophils) [3, 5]: 107.7% | more effective than the next best heptamer peptide ([3]; lower peptide concentration (FIG. 9)): ~56%

Substance: RRWWCY
% INHIB. (IL-8 binding to neutrophils) [3, 4]: 77.9%

Substance: RRWWCQ
% INHIB. (IL-8 binding to neutrophils) [3, 4]: 19.2%

Substance: Arg Arg Trp Trp Cys Arg Lys ([dR][dR][dW][dW][dC][dR][dK]) [rrwwcrk]
% INHIB. (IL-8 binding to neutrophils) [3, 5]: 113.1%

% INHIB. [2]: 86.9%
Substance: RRWWCL (peptide)

Substance: Arg Arg Trp Trp Cys Arg Asn ([dR][dR][dW][dW][dC][dR][dN]) [rrwwcrn]
% INHIB. (IL-8 binding to neutrophils) [3, 5]: 110.8%

% INHIB. [1]: 70.4%
Substance: rrwwcrs (peptide)

Substance: RRWWCL
% INHIB. (IL-8 binding to neutrophils) [3, 4]: 86.9%

Substance: Arg Arg Trp Trp Cys Arg Ala ([dR][dR][dW][dW][dC][dR][dA]) [rrwwcra]
% INHIB. (IL-8 binding to neutrophils) [3, 5]: 95.3%

% INHIB. [1]: 87.3%
Substance: rrwwcrp (peptide)

% INHIB. [1]: 107%
Substance: rrwwcrd (peptide)

% INHIB. [2]: 88.4%
Substance: RRWWCT (peptide)

% INHIB. [1]: 103%
Substance: rrwwcrr (peptide)

Substance: RRWWCS
% INHIB. (IL-8 binding to neutrophils) [3, 4]: 79.3%

% INHIB. [1]: 99.1%
Substance: rrwwcrl (peptide)

Substance: Arg Arg Trp Trp Cys Arg Thr ([dR][dR][dW][dW][dC][dR][dT]) [rrwwcrt]
% INHIB. (IL-8 binding to neutrophils) [3, 5]: 56.3%

Substance: Arg Arg Trp Trp Cys Arg Gln ([dR][dR][dW][dW][dC][dR][dQ]) [rrwwcrq]
% INHIB. (IL-8 binding to neutrophils) [3, 5]: 89.2%

Substance: Arg Arg Trp Trp Cys Arg Ser ([dR][dR][dW][dW][dC][dR][dS]) [rrwwcrs]
% INHIB. (IL-8 binding to neutrophils) [3, 5]: 70.4%

Substance: ELRCQCIKTY [IL-8 homologue including the C-X-C motif, reference compound]
ability to inhibit IL-8 binding to neutrophils [3]: None of these peptides had the ability to inhibit IL-8 binding | % Binding Inhibition (IL-8 binding to neutrophils) [3]: 7.6 ± 2.1%

% INHIB. [1]: 95.3%
Substance: rrwwcra (peptide)

Substance: Arg Arg Trp Trp Cys Arg Pro ([dR][dR][dW][dW][dC][dR][dP]) [rrwwcrp]
% INHIB. (IL-8 binding to neutrophils) [3, 5]: 87.3%

Substance: Arg Arg Trp Trp Cys Asp (Ac-RRWWCD; also: D-amino acids, positions not given here)
ability to inhibit IL-8 binding to neutrophils [3]: only minimally active | % INHIB. (IL-8 binding to neutrophils) [3, 4]: 11.8%

Substance: Arg Arg Trp Trp Cys Arg Arg ([dR][dR][dW][dW][dC][dR][dR]) [rrwwcrr]
% INHIB. (IL-8 binding to neutrophils) [3, 5]: 102.8%

Substance: RRWWCP
% INHIB. (IL-8 binding to neutrophils) [3, 4]: 88.3%

% INHIB. [2]: 77.9%
Substance: RRWWCY (peptide)

% INHIB. [2]: 86.8%
Substance: RRWWCG (peptide)

% INHIB. [2]: 11.8%
Substance: RRWWCD (peptide)

% INHIB. [1]: 106%
Substance: rrwwcrw (peptide)

% INHIB. [2]: 80.2%
Substance: RRWWCF (peptide)

Substance: Arg Arg Trp Trp Cys Arg Phe ([dR][dR][dW][dW][dC][dR][dF]) [rrwwcrf]
% INHIB. (IL-8 binding to neutrophils) [3, 5]: 105.6%

% INHIB. [2]: 51.9%
Substance: RRWWCA (peptide)

Substance: Arg Arg Trp Trp Cys Arg Glu ([dR][dR][dW][dW][dC][dR][dE]) [rrwwcre]
% INHIB. (IL-8 binding to neutrophils) [3, 5]: 99.1%

% INHIB. [1]: 107%
Substance: rrwwcrh (peptide)

% INHIB. [2]: 66.4%
Substance: RRWWCW (peptide)

% INHIB. [2]: -12%
Substance: RRWWCN (peptide)

% INHIB. [2]: 69%
Substance: RRWWCM (peptide)

Substance: RRWWCE
% INHIB. (IL-8 binding to neutrophils) [3, 4]: 17.1%

Substance: ELRSQSIKTY [reference compound]
ability to inhibit IL-8 binding to neutrophils [3]: None of these peptides had the ability to inhibit IL-8 binding | % Binding Inhibition (IL-8 binding to neutrophils) [3]: 5.8 ± 3.9%

% INHIB. [1]: 111%
Substance: rrwwcrn (peptide)

Substance: RRWWCT
% INHIB. (IL-8 binding to neutrophils) [3, 4]: 88.4%

Substance: Arg Arg Trp Trp Cys Arg Gly ([dR][dR][dW][dW][dC][dR]G) [rrwwcrg]
% INHIB. (IL-8 binding to neutrophils) [3, 5]: 108.0%

Substance: RRWWCG
% INHIB. (IL-8 binding to neutrophils) [3, 4]: 86.8%

% INHIB. [1]: 99.1%
Substance: rrwwcre (peptide)

% INHIB. [1]: 89.2%
Substance: rrwwcrq (peptide)

Substance: RRWWCV
% INHIB. (IL-8 binding to neutrophils) [3, 4]: 81.1%

% INHIB. [1]: 56.3%
Substance: rrwwcrt (peptide)

Substance: Arg Arg Trp Trp Cys Arg Trp ([dR][dR][dW][dW][dC][dR][dW]) [rrwwcrw]
% INHIB. (IL-8 binding to neutrophils) [3, 5]: 106.3%

% INHIB. [1]: 85.4%
Substance: rrwwcry (peptide)

Substance: Arg Arg Trp Trp Cys Arg Met ([dR][dR][dW][dW][dC][dR][dM]) [rrwwcrm]
% INHIB. (IL-8 binding to neutrophils) [3, 5]: 96.2%

% INHIB. [2]: 88.3%
Substance: RRWWCP (peptide)

% INHIB. [1]: 93.9%
Substance: rrwwcri (peptide)

Substance: RRWWCC (cysteine pairing not given here)
% INHIB. (IL-8 binding to neutrophils) [3, 4]: 75.1%

% INHIB. [2]: 110%
Substance: RRWWCK (peptide)

% INHIB. [2]: 75.1%
Substance: RRWWCC (peptide)

Substance: Arg Arg Trp Trp Cys Arg Val ([dR][dR][dW][dW][dC][dR][dV]) [rrwwcrv]
% INHIB. (IL-8 binding to neutrophils) [3, 5]: 89.2%

Substance: Arg Arg Trp Trp Cys Arg Tyr ([dR][dR][dW][dW][dC][dR][dY]) [rrwwcry]
% INHIB. (IL-8 binding to neutrophils) [3, 5]: 85.4%

Substance: RRWWCI
% INHIB. (IL-8 binding to neutrophils) [3, 4]: 45.8%

Substance: RRWWCH
% INHIB. (IL-8 binding to neutrophils) [3, 4]: 87.9%

Substance: GWRRWWCDAVLY [segment of cell surface glycoprotein CD11c precursor, human leukocyte adhesion receptor p150,95 alpha chain, reference compound]
ability to inhibit IL-8 binding to neutrophils [3]: lack of activity | % Binding Inhibition (IL-8 binding to neutrophils) [3]: −12.9 ± 2.9%

% INHIB. [2]: 19.2%
Substance: RRWWCQ (peptide)

Substance: Arg Arg Trp Trp Cys Arg Asp ([dR][dR][dW][dW][dC][dR][dD]) [rrwwcrd]
% INHIB. (IL-8 binding to neutrophils) [3, 5]: 107.0%

Substance: RRWWCM
% INHIB. (IL-8 binding to neutrophils) [3, 4]: 69.0%

Substance: ELRMQMIKTY [reference compound]
ability to inhibit IL-8 binding to neutrophils [3]: None of these peptides had the ability to inhibit IL-8 binding | % Binding Inhibition (IL-8 binding to neutrophils) [3]: −6.9 ± 3.0%

Substance: RRWWCW
% INHIB. (IL-8 binding to neutrophils) [3, 4]: 66.4%

Substance: Arg Arg Trp Trp Cys Arg Leu ([dR][dR][dW][dW][dC][dR][dL]) [rrwwcrl]
% INHIB. (IL-8 binding to neutrophils) [3, 5]: 99.1%

% INHIB. [1]: 113%
Substance: rrwwcrk (peptide)

% INHIB. [1]: 106%
Substance: rrwwcrf (peptide)

% INHIB. [2]: 87.9%
Substance: RRWWCH (peptide)

% INHIB. [2]: 45.8%
Substance: RRWWCI (peptide)

Substance: RRWWCK
% INHIB. (IL-8 binding to neutrophils) [3, 4]: 110.3%

Substance: Arg Arg Trp Trp Cys Arg Ile ([dR][dR][dW][dW][dC][dR][dI]) [rrwwcri]
% INHIB. (IL-8 binding to neutrophils) [3, 5]: 93.9%

% INHIB. [1]: 96.2%
Substance: rrwwcrm (peptide)

% INHIB. [2]: 81.1%
Substance: RRWWCV (peptide)

Substance: RRWWCN
IL-8 binding inhibition at lower peptide concentration (FIG. 1) ([3]; 20 μM peptide): did indeed exhibit certain inhibitory properties | % INHIB. (IL-8 binding to neutrophils) [3, 4]: −12.0%

Substance: Arg Arg Trp Trp Cys Arg His ([dR][dR][dW][dW][dC][dR][dH]) [rrwwcrh]
% INHIB. (IL-8 binding to neutrophils) [3, 5]: 107.0%
